Entries after “also recorded” stand apart in the source; their conditions may differ.
How the values were obtained:
RhoA in MDA-MB-231 cells = assay: AB-FRET RhoA activation, MDA-MB-231 with RhoA biosensor; assay type: cell-based
Protocol: MDA-MB-231 native or KD cells were seeded (5000 cells/well; ovn, 37 °C) in a chambered coverglass system (Lab-Tek®) coated with a type I collagen matrix (100 μg/mL; Corning). These cells were transfected using the pBabe-puro-RhoA plasmid (0.15 μg; Addgene plasmid #12602) diluted in a buffer solution (JetOPTIMUS® buffer) and a transfection agent (TA; 10 min). The mixture was incorporated into the culture medium (4 h; 37 °C). Two to three hours before image acquisition, the cells expressing the RhoA biosensor were starved in fresh EMEM containing 0.1% FBS and no phenol red. […]
To further elucidate the mechanism of action of CD44v3 mimetic peptide 4, we studied its effect on the TrkA signaling pathway. […] Additionally, to confirm that this effect was independent of TrkA phosphorylation, we measured RhoA activation in MDA-MB-231 cells expressing dead TrkA kinase, which cannot be phosphorylated (Fig. 5D). […]
Fig. 5 CD44v3 is implicated in the phospho-TrkA-independent activation of RhoA GTPase. Phosphorylation of TrkA was measured in the presence of a scramble peptide or CD44v3 mimetic peptide 4 (P4) in the presence or absence of NGF (A). […] Phosphorylation of TrkA and downstream Akt in wild-type MDA-MB-231 and MDA-MB-231 cells expressing kinase-dead TrkA, as determined by western blotting (D). […]

[1] = tested on: TrkA-His tagged extracellular domain protein (Ala 34-Gly423); assay: MST binding of CD44v3 mimetic peptides to TrkA; details: TrkA-His 200 nM labelled with RED-Tris-NTA, PBS-T
Protocol: MST was conducted using an NT.115 A Pico MST instrument (Nano Temper Technologies GmbH) equipped with red and blue filter sets. The TrkA-His tagged extracellular domain protein (Ala 34-Gly423) (9966-TK-050; R&D Systems, United Kingdom), diluted to 200 nM in PBS-T buffer (supplied by the vendor), was labeled using a Monolith His-Tag Labeling Kit with RED-Tris-NTA (Nano Temper). The RED-Tris-NTA dye was diluted in PBS-T to 100 nM. The mix was incubated at RT in the dark for 30 min. Next, an extract expressing CD44v3-labeled protein (CD44v3-His) and ligand and/or TrkA was mixed at a 1:1 ratio and incubated at RT in the dark for 15 min. For the binding check, peptides and TrkA-His were used. Capillaries were filled individually and loaded into the instrument. The data were acquired using high MST power and 100% LED. The data were analyzed using MO Control Software (Nano Temper).
Fig. 2 The C-terminal region of CD44v3 and the His112 residue of TrkA are involved in the CD44v3/TrkA interaction. TrkA/CD44v3 complex association was detected by the proximity ligation assay (PLA) in wild-type TrkA- or TrkA_H112A- and CD44v3-expressing COS-7 cells. Proximity ligation assays were performed after 0, 5 and 30 min of NGF treatment (100 ng/ml). Representative images of signals detected by PLA (A) and their quantification (B). Sequence of CD44 exon variant 3 and deletion mutant Δ3 or Δ4 (C). TrkA/CD44v3 complex association was detected by PLA in wild-type TrkA and CD44v3 wild type or CD44v3 deleted mutant Δ3 or Δ4 expressing COS-7 (D, E). Sequence of CD44v3 mimetic peptides (F) and structure (G). TrkA binding to CD44v3 mimetic peptides by microscale thermophoresis (H) and effects of CD44v3 mimetic peptides 3 (RDRHLSFSGSG) and 4 ([…]) on TrkA/CD44v3 complex formation (I, J). Quantification of PLA was performed using ImageJ software (30 fields per condition of three different experiments). Statistical analyses were performed using one-way ANOVA followed by Bonferroni’s posttest.
To block the TrkA-CD44v3 association, 4 mimetic peptides of CD44v3 were designed corresponding to zone 1 [(K) STSSNTISAG], zone 2 (WEPNEENEDE), zone 3 (RDRHLSFSGSG) and zone 4 (IDDDEDFISST) (Fig. 2F & G). The binding capacities of the CD44v3 mimetic peptides to TrkA were then measured by MST (Fig. 2H). […] To confirm mimetic peptide 4 binding, we assessed its ability to bind TrkA using nanoscale differential scanning fluorimetry (nanoDSF; Supplementary Fig. 6A & B).

binding to TrkA by MST (in words) [1]: could bind TrkA
Sequence: IDDDEDFISST [Peptide 4, mimetic peptide 4 (…) corresponding to the C-terminal region of CD44v3]
Mean donor peak (AB-FRET, RhoA activation), with NGF (RhoA in MDA-MB-231 cells): 1.23 | NGF-induced FRET signal (RhoA activity), in words (RhoA in MDA-MB-231 cells; statement: NGF increased the signal with scramble peptide, not with peptide 4, listed as CD44v3 mimetic peptide 4): NGF increased the FRET signal in the presence of the scramble peptide but not with CD44v3 mimetic peptide 4; also recorded: inhibits TrkA phosphorylation-independent RhoA activation induced by NGF
